The source of these data is patent US9624218B2 (Eli Lilly and Company, priority 2014, dated 2017).

Like-named read-outs stand apart in the source and are kept apart here.

Test [1] concerns EGFP-Axin2 fusion protein. The note with it: read-out: Axin2 Stabilization EC50; HEK293 EGFP-Axin2 cells, 24 hours; Mean ± SEM.
Test [2] relates to Wnt-inducible genes (TCF/LEF luciferase reporter in DLD-1 TOPFlash cells). Nature of the test: cells. The note with it: Homo sapiens, DLD-1, 24 h, read-out: Wnt-inducible gene expression inhibition IC50, DLD-1 TOPFlash cells, 24 hours; Mean ± SEM.
The test system is the same in test [3]. The note with it: read-out: Wnt-inducible gene expression inhibition IC50, 24 hours, Mean ± SEM.

For `CN1CCCc2c1nc(N1CCN(Cc3ncc(F)cn3)CC1)[nH]c2=O` [Example 39, 2-[4-[(5-Fluoropyrimidin-2-yl)methyl]piperazin-1-yl]-8-methyl-3,5,6,7-tetrahydropyrido [2,3-d]pyrimidin-4-one], the EC50 in test [1] worked out at 181 nM. In addition, in test [2], the IC50 came to 20.6 nM.
Consider `COc1ccnc(CN2CCN(c3nc4c(c(=O)[nH]3)CCCN4C)CC2)n1` [Example 13, 2-[4-[(4-methoxypyrimidin-2-yl)methyl]piperazin-1-yl]-8-methyl-3,5,6,7-tetrahydropyrido[2,3-d]pyrimidin-4-one], for which the EC50 in test [1] came to 101 nM. Besides, the IC50 in test [2] came to 23 nM.
Turning to `CN1CCCc2c1nc(N1CCN(Cc3ncccc3Br)CC1)[nH]c2=O` [Example 3, 2-[4-[(3-Bromo-2-pyridyl)methyl]piperazin-1-yl]-8-methyl-3,5,6,7-tetrahydropyrido[2,3-d]pyrimidin-4-one], the concentration for a half-maximal effect (EC50) in test [1] was found to be 18.4 nM. Besides, the 50% inhibitory concentration (IC50) in test [2] was 8.66 nM.
In the same order, the values of `CN1CCCc2c1nc(N1CCN(Cc3cnccn3)CC1)[nH]c2=O` [Example 42, 8-Methyl-2-[4-(pyrazin-2-ylmethyl)piperazin-1-yl]-3,5,6,7-tetrahydropyrido[2,3-d]pyrimidin-4-one] are 141 nM and 22 nM.
In the case of `CN1CCCc2c1nc(N1CCN(Cc3ncc(Cl)cn3)CC1)[nH]c2=O` [Example 18, 2-[4-[(5-Chloropyrimidin-2-yl)methyl]piperazin-1-yl]-8-methyl-3,5,6,7-tetrahydropyrido[2,3-d]pyrimidin-4-one], the concentration giving a half-maximal response (EC50) in test [1] stood at 901 nM. Also, the IC50 in test [2] was determined as 156 nM.
With `Cc1nccnc1CN1CCN(c2nc3c(c(=O)[nH]2)CCCN3C)CC1` [Example 44, 8-Methyl-2-[4-[(3-methyl-pyrazin-2-yl)methyl]piperazin-1-yl]-3,5,6,7-tetrahydropyrido[2,3-d]pyrimidin-4-one], the concentration for a half-maximal effect (EC50) in test [1] was found to be 118 nM. In test [2], the IC50 came to 11.2 nM.
In the case of `CN1CCCc2c1nc(N1CCN(Cc3ncccc3C#N)CC1)[nH]c2=O` [Example 40, 2-[[4-(8-Methyl-4-oxo-3,5,6,7-tetrahydropyrido[2,3-d]pyrimidin-2-yl)piperazin-1-yl]methyl]pyridine-3-carbonitrile], the half-maximal effective concentration (EC50) in test [1] was found to be 39.8 nM. Also, the IC50 in test [2] was 6.95 nM.
In the case of `CN1CCCc2c1nc(N1CCN(Cc3ncccc3Cl)CC1)[nH]c2=O` [Example 2, 2-[4-[(3-Chloro-2-pyridyl)methyl]piperazin-1-yl]-8-methyl-3,5,6,7-tetrahydropyrido[2,3-d]pyrimidin-4-one], in test [1], the EC50 was 32 nM. Moreover, the 50% inhibitory concentration (IC50) in test [2] is 8.17 nM.
The matching figures for `CN1CCCc2c1nc(N1CCN(Cc3ncc(C(F)(F)F)cn3)CC1)[nH]c2=O` [Example 15, 8-Methyl-2-[4-[[5-(trifluoromethyl)pyrimidin-2-yl]methyl)piperazin-1-yl]-3,5,6,7-tetrahydropyrido[2,3-d]pyrimidin-4-one]: 115 nM and 15.4 nM.
For the compound `CN1CCCc2c1nc(N1CCN(Cc3nccc(C(F)(F)F)n3)CC1)[nH]c2=O` [Example 16, 8-Methyl-2-[4-[[4-(trifluoromethyl)pyrimidin-2-yl]methyl]piperazin-1-yl]-3,5,6,7-tetrahydropyrido[2,3-d]pyrimidin-4-one], in test [1], the concentration for a half-maximal effect (EC50) was found to be 509 nM. The IC50 in test [2] was found to be 102 nM.
On to `CN1CCCc2c1nc(N1CCN(Cc3nccc(Cl)n3)CC1)[nH]c2=O` [Example 41, 2-[4-[(4-Chloropyrimidin-2-yl)methyl]piperazin-1-yl]-8-methyl-3,5,6,7-tetrahydropyrido[2,3-d]pyrimidin-4-one], for which the EC50 in test [1] amounted to 61.6 nM.
Consider `CC(c1ncccn1)N1CCN(c2nc3c(c(=O)[nH]2)CCCN3C)CC1` (single isomer, unassigned; isomer 1) [Example 8, 8-Methyl-2-[4-(1-pyrimidin-2-ylethyl)piperazin-1-yl]-3,5,6,7-tetrahydropyrido[2,3-d]pyrimidin-4-one, Isomer 1], for which the half-maximal effective concentration (EC50) in test [1] was determined as 71.5 nM. The half-maximal inhibitory concentration (IC50) in test [2] was found to be 18.4 nM.
On to `CN1CCCc2c1nc(N1CCN(Cc3ncccc3O)CC1)[nH]c2=O` [Example 4, 2-[4-[(3-Hydroxy-2-pyridyl)methyl]piperazin-1-yl]-8-methyl-3,5,6,7-tetrahydropyrido[2,3-d]pyrimidin-4-one], for which the concentration giving a half-maximal response (EC50) in test [1] came to 26.9 nM. For the same compound, in test [2], the IC50 was 6.71 nM.
With `CN1CCCc2c1nc(N1CCN(Cc3ccccc3Cl)CC1)[nH]c2=O` [Example 38, 2-[4-[(2-Chlorophenyl)methyl]piperazin-1-yl]-8-methyl-3,5,6,7-tetrahydropyrido[2,3-d]pyrimidin-4-one], the EC50 in test [1] was determined as 34.8 nM. For the same compound, in test [2], the IC50 was determined as 22.2 nM.
`CN1CCCc2c1nc(N1CCN(Cc3nccnc3Cl)CC1)[nH]c2=O` [Example 43, 2-[4-[(3-Chloropyrazin-2-yl)methyl]piperazin-l-yl]-8-methyl-3,5,6,7-tetrahydropyrido[2,3-d]pyrimidin-4-one]: in test [1], the half-maximal effective concentration (EC50) was 74.5 nM.
In the case of `Cc1cnc(CN2CCN(c3nc4c(c(=O)[nH]3)CCCN4C)CC2)nc1` [Example 17, 8-Methyl-2-[4-[(5-methylpyrimidin-2-yl)methyl]piperazin-1-yl]-3,5,6,7-tetrahydropyrido[2,3-d]pyrimidin-4-one], the EC50 in test [1] was 198 nM. The concentration for half-maximal inhibition (IC50) in test [2] was determined as 37.3 nM.
In the case of `CC(c1ncccn1)N1CCN(c2nc3c(c(=O)[nH]2)CCCN3C)CC1` (racemic) [Example 7, 8-Methyl-2-[4-(1-pyrimidin-2-ylethyl)piperazin-1-yl]-3,5,6,7-tetrahydropyrido[2,3-d]pyrimidin-4-one], in test [1], the EC50 was 121 nM. Also, the IC50 in test [2] was found to be 14.6 nM.
Regarding `CCC(c1ncccn1)N1CCN(c2nc3c(c(=O)[nH]2)CCCN3C)CC1` (single isomer, unassigned; isomer 2) [Example 12, 8-Methyl-2-[4-(1-pyrimidin-2-ylpropyl)piperazin-1-yl]-3,5,6,7-tetrahydropyrido[2,3-d]pyrimidin-4-one, Isomer 2], the EC50 in test [1] amounted to 122 nM. Also, the IC50 in test [3] worked out at 19.5 nM.
Consider `CN1CCCc2c1nc(N1CCN(Cc3ccccn3)CC1)[nH]c2=O` [Example 19, 8-Methyl-2-[4-(2-pyridylmethyl)piperazin-1-yl]-3,5,6,7-tetrahydropyrido[2,3-d]pyrimidin-4-one], for which the EC50 in test [1] was 62.6 nM. Further, in test [2], the IC50 is 12.6 nM.
For `CN1CCCc2c1nc(N1CCN(Cc3ncccc3F)CC1)[nH]c2=O` [Example 20, 2-[4-[(3-Fluoro-2-pyridyl)methyl]piperazin-1-yl]-8-methyl-3,5,6,7-tetrahydropyrido[2,3-d]pyrimidin-4-one], the EC50 in test [1] was 77.9 nM. The IC50 in test [2] was 22.2 nM.
Regarding `CCC(c1ncccn1)N1CCN(c2nc3c(c(=O)[nH]2)CCCN3C)CC1` (stereo not shown) [Example 10, 8-Methyl-2-[4-(1-pyrimidin-2-ylpropyl)piperazin-1-yl]-3,5,6,7-tetrahydropyrido[2,3-d]pyrimidin-4-one], the EC50 in test [1] stood at 590 nM. For the same compound, in test [2], the 50% inhibitory concentration (IC50) came out at 171 nM.
With `CN1CCCc2c1nc(N1CCN(Cc3ncc(F)cc3F)CC1)[nH]c2=O` [Example 45, 2-[4-[(3,5-Difluoro-2-pyridyl)methyl]piperazin-1-yl]-8-methyl-3,5,6,7-tetrahydropyrido[2,3-d]pyrimidin-4-one], in test [1], the EC50 worked out at 144 nM. The concentration for half-maximal inhibition (IC50) in test [2] came out at 18.8 nM.
On to `Cc1ccnc(CN2CCN(c3nc4c(c(=O)[nH]3)CCCN4C)CC2)n1` [Example 14, 8-Methyl-2-[4-[(4-methylpyrimidin-2-yl)methyl]piperazin-1-yl]-3,5,6,7-tetrahydropyrido[2,3-d]pyrimidin-4-one], for which the concentration giving a half-maximal response (EC50) in test [1] was 52.7 nM. In test [2], the half-maximal inhibitory concentration (IC50) is 9.35 nM.
Take `CC(c1ncccn1)N1CCN(c2nc3c(c(=O)[nH]2)CCCN3C)CC1` (single isomer, unassigned; isomer 2) [Example 9, 8-Methyl-2-[4-(1-pyrimidin-2-ylethyl)piperazin-1-yl]-3,5,6,7-tetrahydropyrido[2,3-d]pyrimidin-4-one, Isomer 2]: in test [1], the EC50 was determined as 70.9 nM. Also, the IC50 in test [3] was determined as 28.2 nM.

For orientation: EC50 means the concentration at which the effect is half-maximal. As usually defined, the IC50 is the midpoint of a concentration-inhibition curve.
